The values below come from patent US20240327433A1, “PYRIMIDOPYRAN COMPOUND” (Medshine Discovery Inc., priority 2021, published 2024).

The test system of one series is p-ERK in GP2D cells. The series can be described thus: Assay of p-ERK inhibition in GP2D cells (HTRF). The series is classed as cell-based. As to conditions: 1 hour incubation. The procedure: The cell plate was inoculated in a carbon dioxide incubator at 37° C. overnight; • 2) 2 μL of the compound was weighed and added to 78 μL of the cell medium. After the mixture was mixed thoroughly, 20 μL of the solution of compound was weighed and added to the corresponding well of the cell plate. The cell plate was placed back to the carbon dioxide incubator and incubated for another 1 hour; • 3) After completion of the incubation, the cell supernatant was discarded. 50 μL of 1× cell lysate was added to each well. The mixture was incubated with shaking at room temperature for 30 minutes; • 4) Phospho-ERK1/2 Eu Cryptate antibody and Phospho-ERK1/2 d2 antibody were diluted 20-fold with detection buffer; • 5) 16 μL of cell lysate supernatant was weighed and added into each well of a new 384 white microwell plate, and then 2 μL of the diluted solution of Phospho-ERK1/2 Eu Cryptate antibody and 2 μL of the diluted solution of Phospho-ERK1/2 d2 antibody dilution were added. The mixture was incubated at room temperature for at least 4 hours; • 6) After completion of the incubation, HTRF was read with multi-label analyzer: excitation: 320 nm, emission: 615 nm, 665 nm; • 7). IC50 of the compounds to be assayed was calculated.
Background: TR-FRET usually uses a lanthanide donor and a delayed reading to cut background.

Another series deals with KRAS^G12D AsPC-1. Briefly: Anti-cell proliferation effect in tumor cell line AsPC-1 (CellTiter-Glo 3D). The series is classed as cell-based. The conditions noted are these: Homo sapiens, ASPC1, AsPC-1, 120 hours. Here is the method:
(§1) In this assay, the effect of the compounds on inhibiting cell proliferation was studied by detecting the effect of the compounds on the cell activity in vitro in the tumor cell lines AsPC-1 and GP2D.
(§2) The tumor cell lines were cultured in a 37° C., 5% CO2 incubator according to the culture conditions indicated in the culture method. Cells were passaged regularly, and cells in logarithmic growth phase were used for plating.
(§3) Cells were stained with trypan blue and viable cells were counted.
(§4) The cell concentration was adjusted to an appropriate concentration.
(§5) To each well of a ULA culture plate was added 135 μL of cell suspension. To the blank control well was added the same volume of culture medium without cells.
(§6) After plating, the ULA culture plate was immediately centrifuged at room temperature at 1000 rpm for 10 minutes. Note: After completion of the centrifugation, subsequent operations must be processed carefully to avoid unnecessary shocks.
(§7) The culture plate was incubated in a 37° C., 5% CO2, 100% relative humidity incubator overnight.
(§8) 10× compound working solution (10× working solution in DMSO) was formulated, and then to the ULA culture plate was add 15 μL of 10× compound working solution, and to the vehicle control and blank control was added 15 μL of DMSO-cell culture medium mixture, respectively. […]
(§9) The luminescent signal was detected on a 2104 EnVision plate reader. […]

The test system of a further series is KRAS^G12D GP2D. The series can be described thus: Anti-cell proliferation effect in tumor cell line GP2D (CellTiter-Glo 3D). As to conditions: 120 hours. It counts as cell-based. Here is the method:
as §1, §2, §3, §4, §5, §6, §7, §8, §9
(In general: In ATP-based viability assays light output follows the ATP content of the culture.)

Another series concerns the target KRAS^G12D (Homo sapiens (Human), UniProt P01116, G12D). The series can be described thus: Assay of activity of inhibiting KRAS^G12D (TR-FRET, SOS/GTP nucleotide exchange). The series is classed as biochemical. The procedure:
20 mL of 1000 mM HEPES, 20 mL of 500 mM EDTA, 10 mL of 5 M sodium chloride, 0.1 mL of 100% Tween 20, and 949.9 mL of water were weighed and formulated to 1 L of solution. The solution was sterilized by filtration and stored at 4° C.
20 mL of 1000 mM HEPES, 10 mL of 1000 mM magnesium chloride, 30 mL of 5 M sodium chloride, 0.05 mL of 100% Tween 20, and 939.95 mL of water were weighed and formulated to 1 L of solution. The solution was sterilized by filtration and stored at 4° C.
9.5 μL of 95 μM KRAS^G12D protein and 440.5 μL of KRAS nucleotide exchange buffer were weighed and mixed. The mixture was incubated at room temperature for 1 hour, and then formulated to […] of solution together with 8.4 μL of 17.9 μM Tb-SA, 1.8 μL of 5 mM Bodipy GDP and 9539.8 μL of KRAS assay buffer. After mixing, the solution was left to stand at room temperature for 6 hours, and stored at −80° C. • b. Assay reagents:
73.3 μL of KRAS/Bodipy GDP/Tb-SA mixture and 2126.7 μL of KRAS assay buffer were weighed and formulated to 2200 μL of solution.
1.59 μL of 166 μM SOS protein, 198 μL of 100 mM GTP and 2000.41 μL of KRAS assay buffer were weighed and formulated to 2200 μL of solution.
• 1) The concentration of a stock solution of the control compound was 1 mM, and the concentration of a stock solution of compounds to be assayed was 10 mM. […]

Series [1] in a line: Pharmacokinetic study of oral and intravenously injected compounds in CD-1 mouse. The series is classed as in vivo. Here is the method: To assay the pharmacokinetics of oral and intravenously injected compounds in CD-1 mouse. The assay compound was mixed with 5% DMSO+95% (10% HP-β-CD) aqueous solution. The mixture was vortexed and sonicated to prepare a clear solution of 0.5 mg/mL (intravenous) or a clear solution of 3 mg/mL (oral). The clear solution was filtered by a microporous membrane for use. […] Whole blood was collected for a certain period of time, and prepared to obtain plasma. Drug concentration was analyzed by LC-MS/MS method, and pharmacokinetic parameters were calculated by Phoenix WinNonlin software (Pharsight, USA).

[2] abbreviates: male, CD-1, plasma, intravenous (IV), about 2 mg/kg.
[3] abbreviates: male, CD-1, plasma, oral (PO), about 30 mg/kg.

Structures can show the parent of a compound that is named as a salt.

Sequence of KRAS^G12D (P01116-2 other isoform, or with tags, fused parts or gaps G12D): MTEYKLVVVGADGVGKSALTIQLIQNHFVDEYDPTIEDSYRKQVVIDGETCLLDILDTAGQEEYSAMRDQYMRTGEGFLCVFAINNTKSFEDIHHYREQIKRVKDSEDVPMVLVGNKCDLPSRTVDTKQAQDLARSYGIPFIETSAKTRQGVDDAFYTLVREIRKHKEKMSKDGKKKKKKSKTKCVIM

Consider `Cc1cc(N)c(F)c(C2Cc3nc(OC[C@@]45CCCN4C[C@H](F)C5)nc(N4CC5CCC(C4)N5)c3CO2)c1Br` (stereo partly shown) [Compound 15 hydrochloride], for which 8.4 nM corresponded to half-maximal inhibition with p-ERK in GP2D cells (IC50).

`Cc1cc(N)nc(C2Cc3nc(OC[C@@]45CCCN4C[C@H](F)C5)nc(N4CC5CCC(C4)N5)c3CO2)c1C(F)(F)F` (stereo partly shown) [Compound 23 formate]: in the series with p-ERK in GP2D cells, the IC50 came to 23.4 nM.

`Cc1cc(N)c(F)c(C2Cc3nc(OC[C@@]45CCCN4C[C@H](F)C5)nc(N4CC5CCC(C4)N5)c3CO2)c1C(F)(F)C(F)(F)F` (stereo partly shown) [Compound 12 formate] showed an IC50 in the series on p-ERK in GP2D cells of 20.9 nM.

As to `Cc1cc(N)c(F)c(C2Cc3nc(OC[C@@]45CCCN4C[C@H](F)C5)nc(N4CC5CC(C4)N5)c3CO2)c1C(F)(F)F` (stereo partly shown) [Compound 2 hydrochloride], the IC50 with KRAS^G12D AsPC-1 came to 1860 nM; in the series with KRAS^G12D GP2D, 332 nM.

`Nc1cc(Cl)c(Br)c(C2Cc3nc(OC[C@@]45CCCN4C[C@H](F)C5)nc(N4CC5CCC(C4)N5)c3CO2)c1F` (stereo partly shown) [Compound 21 hydrochloride] gave an IC50 in the series with p-ERK in GP2D cells of 2.6 nM.

`Cc1cc(N)c(F)c(C2Cc3nc(OC[C@@]45CCCN4C[C@H](F)C5)nc(N4CC5CCC(C4)N5)c3CO2)c1Cl` (stereo partly shown) [Compound 14 hydrochloride] displayed an IC50 in the series on p-ERK in GP2D cells of 5.2 nM.

As to `C#Cc1c(C)cc(N)c(F)c1C1Cc2nc(OC[C@@]34CCCN3C[C@H](F)C4)nc(N3CC4CCC(C3)N4)c2CO1` (stereo partly shown) [Compound 17], the IC50 in the series on p-ERK in GP2D cells is 27.1 nM.

Consider `Cc1cc(N)c(F)c(C2Cc3nc(OC[C@@]45CCCN4C[C@H](F)C5)nc(N4CC5CCC(C4)N5)c3CO2)c1I` (stereo partly shown) [Compound 16 hydrochloride], for which it took 2.9 nM to reach half-maximal inhibition in the series on p-ERK in GP2D cells (IC50).

In the case of `Cc1cc(N)c(F)c(C2Cc3nc(OC[C@@]45CCCN4C[C@H](F)C5)nc(N4CC5C=CC(C4)N5)c3CO2)c1C(F)(F)F` (stereo partly shown) [Compound 7 hydrochloride], the values for the IC50 in the series on p-ERK in GP2D cells and against KRAS^G12D were 1.1 nM and 0.1 nM, respectively.

As for `Oc1cc(C2Cc3nc(OC[C@@]45CCCN4C[C@H](F)C5)nc(N4CC5CCC(C4)N5)c3CO2)c2ccccc2c1` (stereo partly shown) [Compound 8 hydrochloride], the IC50 in the series on p-ERK in GP2D cells was determined as 78 nM; against KRAS^G12D, 78.3 nM.

`Cc1cc(N)c(F)c(C2Cc3nc(OC[C@@]45CCCN4C[C@H](F)C5)nc(N4CC5CCC(C4)N5)c3CO2)c1C#N` (stereo partly shown) [Compound 18]: in the series on p-ERK in GP2D cells, the IC50 stood at 66.4 nM.

The compound `C=Cc1c(C)cc(N)c(F)c1C1Cc2nc(OC[C@@]34CCCN3C[C@H](F)C4)nc(N3CC4CCC(C3)N4)c2CO1` (stereo partly shown) [Compound 19 hydrochloride] returned an IC50 with p-ERK in GP2D cells of 17.5 nM.

In the case of `Cc1cc(N)c(F)c(C2Cc3nc(OC[C@@]45CCCN4C[C@H](F)C5)nc(N4CC5CCC(C4)N5)c3CO2)c1C` (stereo partly shown) [Compound 25 hydrochloride], the IC50 in the series with p-ERK in GP2D cells stood at 96.4 nM.

For `Cc1cc(N)c(F)c(C2Cc3nc(OC[C@@]45CCCN4C[C@H](F)C5)nc(N4CC5CCC(C4)N5)c3CO2)c1C1CC1` (stereo partly shown) [Compound 27 hydrochloride], in the series with p-ERK in GP2D cells, the IC50 turned out to be 118 nM.

In the case of `Nc1cc(F)c(C(F)(F)F)c(C2Cc3nc(OC[C@@]45CCCN4C[C@H](F)C5)nc(N4CC5CCC(C4)N5)c3CO2)c1F` (stereo partly shown) [Compound 22 hydrochloride], in the series on p-ERK in GP2D cells, the IC50 worked out at 2.7 nM.

In the series on p-ERK in GP2D cells, `Nc1ccc(C(F)(F)F)c([C@H]2Cc3nc(OC[C@@]45CCCN4C[C@H](F)C5)nc(N4CC5CCC(C4)N5)c3CO2)c1F` (single isomer, unassigned) [Compound 20B] returned a 50% inhibitory concentration (IC50) of 1.3 nM. In series [1] (setting [2]), this compound gave an AUC(0-t) of 0.371 µM·h, a C0 of 449 nM, a Vd of 97.2 L/kg and a clearance of 138 mL/min/kg. The compound also had a half-life in series [1] (setting [2]) of 11.2 h. In series [1] (setting [3]), this compound showed an AUC(0-inf) of 4.71 µM·h, a Cmax of 2100 nM and a half-life of 14.4 h. In series [1] (oral (PO), about 30 mg/kg, oral bioavailability), this compound gave an F of 85%.

What is called IC50 is the concentration that gives 50% inhibition. Higher therefore signals a need for much substance. Broadly, the AUC(0-t) is exposure summed from dosing to a finite time, without extrapolation to infinity. The half-life is the time in which the quantity being followed falls by half. What is called AUC(0-inf) is total exposure, with the tail of the curve extrapolated. High values mean more exposure, low ones less exposure. Usually Cmax stands for the highest concentration seen after dosing.
